Test results from US12343319B2, “Compositions and methods for treatment of diseases and disorders” (Atai Therapeutics Inc., priority 2023, dated 2025).

Key:
5-HT2A = experiment: IPOne, 5-HT2A; assay type: cell-based, human; details: IPOne, human; calculated using ΔΔlog(Emax/EC50), reference = 1
Procedure: (§1) In vitro pharmacology studies were performed to evaluate the effects of compound 2-1 on functional activity of several 5-HT receptors using recombinant target overexpression cell culture systems. The effect of compound 2-1 on G protein-dependent signaling was investigated at 5-HT2A, 5-HT2B, and 5-HT2C receptors with calcium mobilization and IPOne assays; and at 5-HT1A, 5-HT1B, 5-HT1F, 5-HT5A, and 5-HT7D receptors with a cAMP assay. G protein-independent signaling was investigated at the 5-HT2A receptor with a β-Arrestin assay.
(§2) In vitro pharmacology studies were performed to evaluate the effects of compound 2-2 on functional activity at several 5-HT receptors using recombinant target overexpression cell culture systems. The effect of compound 2-2 on G protein-dependent signaling was investigated at 5-HT2A, 5-HT2B, and 5-HT2C receptors with calcium mobilization and IPOne assays; and at 5-HT1A, 5-HT1B, 5-HT1F, 5-HT5A, and 5-HT7D receptors with a cAMP assay. G protein-independent signaling was investigated at the 5-HT2A receptor with a β-arrestin assay. […] In Table 4, 5-HT receptor selectivity was calculated using ΔΔlog(Emax/EC50). Assay reference α-Me-5-HT or 5-HT was used for normalization at each receptor (5-HT2A/5-HT2B selectivity=1; 5-HT2A/5-HT2C selectivity=1). ND in Table 4 indicates, not determined, plateau was not reached within the concentration range tested to determine Emax.

5-HT1F = molecular target: T1, 5-HT1F (Homo sapiens, UniProt P30939); experiment: cAMP, 5-HT1F; assay type: cell-based
T1 construct: expressed in transfected cells
T1 sequence (P30939 1-366): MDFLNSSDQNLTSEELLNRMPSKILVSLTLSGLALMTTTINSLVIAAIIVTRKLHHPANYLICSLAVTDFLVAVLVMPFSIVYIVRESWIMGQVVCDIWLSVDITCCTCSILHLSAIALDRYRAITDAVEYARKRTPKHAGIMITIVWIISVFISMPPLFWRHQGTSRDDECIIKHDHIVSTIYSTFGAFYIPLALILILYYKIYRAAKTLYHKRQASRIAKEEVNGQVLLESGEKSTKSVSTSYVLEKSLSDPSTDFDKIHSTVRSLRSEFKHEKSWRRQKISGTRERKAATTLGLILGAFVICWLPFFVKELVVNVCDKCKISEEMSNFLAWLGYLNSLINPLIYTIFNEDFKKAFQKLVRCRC
Procedure: as §1, §2

Male WKY rats = experiment: Sleep-wake behavior, EEG power, body temperature and locomotor activity in WKY rats; assay type: in vivo, rat
Procedure: Male WKY rats (n=7, 289-388 g at the start of dosing) were housed in groups of 2-3 animals per cage with standard housing conditions. For implantation of the EEG electrodes and radio transmitter, the animals were anesthetized with isoflurane (2-5% in oxygen at 11/min) throughout the procedure. The scalp, neck and right flank were cleared of hair using clippers and cleaned using diluted Hibitane (chlorhexidine, 50% (v/v) in water). A non-steroidal anti-inflammatory agent was administered (carprofen 5 mg/kg, s.c.) and the animals placed on a homeothermic blanket (37° C.) with the head fixed in a stereotaxic frame. Incisions were made in the scalp and neck, as well as in the right flank. Blunt dissection of the abdominal muscle was then made to gain access to the peritoneal cavity. A radio transmitter (HD-S02, Data Sciences International) was implanted in the peritoneal cavity and secured to the muscle wall with non-absorbable sutures. The wires of the transmitter were passed using a 19G needle through the muscle wall and then sub-dermally to the scalp to act as Electroencephalogram (EEG)/Electromyograph (EMG) electrodes. The scalp was cleared of connective tissue and two craniotomies were made with a trepanning drill (fronto-parietal coordinates; Bregma+2 mm anterior, midline+1.0 mm lateral and Lambda 0 mm, +1.5 mm lateral). The positive EEG electrode was attached to the anterior craniotomy and the negative EEG electrode to the posterior craniotomy. Both electrodes were secured in place using a suitable adhesive agent (cyanoacrylate gel, RS components). A second set of electrodes were sutured into the nuchal muscle to act as EMG electrodes. All incisions were closed using absorbable suture.
All animals were allowed to recover in a warm environment and given 5 ml of saline subcutaneously (s.c.). Animals were kept singly in the cage until the next day, then pair housed for the duration of post-surgical recovery (minimum 7 days). During the recovery period, the rats received 5 days of standard post-operative care with no further experimental procedures until the pre-operative body weight was regained. The animals were maintained on a 12/12 hour light dark cycle (08:00 am lights on) after the surgery. Home cages and post-operative cages contained bedding and nesting material, along with environmental enrichment such as wooden chew-sticks and plastic tunnels.
On test days, ˜60 minutes after lights-on, animals were placed in recording boxes similar to their home-cages, except that environmental enrichment was restricted to a large bundle of nesting and bedding material, to avoid interference with the telemeter signals. Then, data acquisition was initiated for confirmation of signal quality. EEG and EMG data were acquired using intraperitoneal HD-S02 transmitters (DSI, New Brighton, MN) and Spike2 software (CED). EEG and EMG signals were digitized 500 samples/second, amplified 1000× and bandpass filtered at 0.5-100 Hertz (Hz). After 60 minutes of habituation, each animal was briefly removed from its box and dosed via the intraperitoneal (i.p.) route in a volume of 2 mL/kg. Test conditions included saline vehicle, psilocybin (10 mg/kg) positive control, compound 2-1 at 3, 10 and 30 mg/kg and compound 2-2 at 10, 17 and 30 mg/kg. Doses were based on the molecular weight of the free bases. compound 2-1 and compound 2-2 dosing solutions were prepared in 40% (w/v) hydroxypropyl-beta-cyclodextrin. After dosing, animals were immediately put back into the recording boxes, the experimenter left the room, and recordings continued uninterrupted for 23 hours. At the end of the recording session, the transmitters were turned off and the animals were returned to their home cages. All animals received all treatment conditions in a pseudo randomized cross-over fashion with a minimum washout period of 7 days between doses.
All data was aligned to zero (the time of dosing), with epochs defined as non-overlapping 10-second time segments. […]

[1] = male WKY rats, IP, initial 4 hours following dosing
[2] = over 6 hours post dose, WKY rats, IP

| Structure (SMILES) | 5-HT2A/5-HT2B Selectivity (5-HT2A) | EC50 (5-HT1F) [µM] | non-REM sleep amount vs vehicle (Male WKY rats; 3 mg/kg i.p., interval starting at 5 hours post dose) | latency to non-REM (NREM) sleep vs vehicle (Male WKY rats; 10 mg/kg i.p.) | persistence of significant effect on delta power during non-REM sleep (Male WKY rats; 30 mg/kg i.p.) | high gamma power during waking (Male WKY rats; 30 mg/kg i.p., over 24 hours post dose) | amount of time spent in wake vs vehicle (Male WKY rats; 3, 10 and 30 mg/kg i.p.) | amount of time spent in non-REM sleep vs vehicle (Male WKY rats; 3, 10 and 30 mg/kg i.p., first 3 hours after administration) | low frequency (delta and theta) power during non-REM sleep (Male WKY rats; 3, 10 and 30 mg/kg i.p., post-dose period 0-2 hours) | latency to REM sleep vs vehicle (Male WKY rats; 10 and 30 mg/kg i.p.) | amount of time spent in REM sleep vs vehicle (Male WKY rats; 10 and 30 mg/kg i.p., starting in the third hour post dose) | waking high gamma power (Male WKY rats; [1]) | waking theta and beta power (Male WKY rats; [1]) | body temperature (Male WKY rats; [2]) | effects on body temperature and locomotor activity (Male WKY rats; male WKY rats) | Locomotor activity (Male WKY rats; [2]) |
| --- | --- | --- | --- | --- | --- | --- | --- | --- | --- | --- | --- | --- | --- | --- | --- | --- |
| COc1ccc(OC)c(CCNCc2cc(C)cc(Cl)c2)c1 [Compound 2-1, N-(3-chloro-5-methylbenzyl)-2-(2,5-dimethoxyphenyl)ethan-1-amine] | 160 | > 9 | significantly increased | significantly increased | persisted through the period starting at 4 hours post dose | significant and lasting decrease | significantly increased | significantly decreased | significantly decreased | significantly increased | significantly decreased | decreased | significantly increased | ↓ (for 6 h) | – | – |
| COc1ccc(OC)c(CCNCc2cc(C)cc(F)c2)c1 [Compound 2-2, 2-(2,5-dimethoxyphenyl)-N-(3-fluoro-5-methylbenzyl)ethan-1-amine] | 177 | > 25 | – | – | – | – | – | – | – | – | – | – | – | – | minimal effects | No Δ (No significant change) |
